Data as given in patent US6994983B2, “Kits for determination of thromboxane B2 metabolite and optimizing aspirin dosage” (Esoterix, Inc. Coagulation, priority 1999, dated 2006).
Where “and” joins values, the source holds several entries; their conditions need not be identical. Identical values can stand only once.

Experiments:
[1] = tested on: 11-dehydro thromboxane B2; assay: Urine 11-dehydro thromboxane B2 (PURR) after one-week interventions with purple grape juice, vitamin E and aspirin; type: in vivo, human; details: for Mean post-intervention PURR: one week each: purple grape juice controlled daily volumes, mean baseline 1105; for Mean post-intervention PURR / % Change of PURR vs mean baseline: vitamin E 400 international units per day, aspirin 650 mg per day; for % Change of PURR vs mean baseline: one week each: purple grape juice; for effect upon urinary excretion of 11-dehydro thromboxane B2: one-week interventions, in words
Experimental: 11-dehydro thromboxane B2, a stable metabolite of platelet-specific cyclooxygenase activity, in urine specimens from 29 individuals was measured. Participants were instructed to drink controlled daily volumes of purple grape juice, 400 international units per day of vitamin E, and 650 mg per day of aspirin. Each intervention was given in one-week intervals separated by a one-week washout period. The metabolite was measured in baseline, post-intervention, and post-washout urine specimens and the results were expressed as platelet urinary response ratios (PURR) based upon pg 11-dehydrothromboxane B2/mg creatinine.

[2] = in vivo; cited from earlier work
[3] = tested on: 11-dehydro TXB2; assay: 11-dehydro TXB2 in random urine of aspirin users and non-users (acetylcholinesterase-linked immunoassay); type: in vivo, human; details: 45 people taking at least 81 mg/day; non-aspirin users 2080
Experimental: Random urine specimens were collected from 65 individuals who had avoided aspirin for at least two weeks and from 45 individuals who were taking 81 or 325 mg/day by prescription. Each specimen was assayed for 11-dehydro-TXB2. Specimens were assayed at two dilutions using acetylcholinesterase-linked immunoassay. The results were tested for parallelism and averaged. Urine creatinine was assayed using the Jaffe picrate reaction. To normalize for urinary output, results were expressed in pg 11-dehydro TXB2/mg creatinine. Results of all populations were compared using the student t-test. Within-day variation is 30% and day-to-day variation 20%.
11-dehydrothromboxane B2 (11-de-H-TXB2), a stable metabolite of platelet activation was measured in random urine specimens from 65 people who were not taking aspirin and 45 who were taking at least 81 mg/day. The means for non-aspirin users was 2080 pg 11-de-H-TXB2/mg creatinine, and for aspirin users was 523, p.<0.0000.1. Receiver-operating characteristic analysis yields an optimum decision point of 1000 pg 11-de-H-TXB2 in random urine may be used to document aspirin's platelet-suppressive effects and to identify individuals who may not achieve antithrombotic benefits.

[4] = tested on: 11-dehydro TXB2; assay: Crossover study: urine 11-dehydro TXB2 before and 24 hours after one 81 or 325 mg aspirin tablet in 24 healthy individuals; type: in vivo, human; details: for mean reduction of 11-dehydro TXB2 / PURR: healthy non-aspirin users
Experimental: In a crossover study, 24 healthy individuals who had avoided aspirin for a minimum of 10 days collected random baseline urine specimens. They then took one 81 or 325 mg tablet at 8:00 a.m. and collected a second urine specimen 24 hours after the aspirin was taken. Following a two-week washout period dosages were reversed and another baseline and 24-hours post-aspirin specimen was collected.
In a crossover study, twenty-four healthy individuals who had avoided aspirin for a minimum of ten days collected random baseline urine specimens. They then took one 81 or 325 mg tablet at 8:00 AM and collected a second urine specimen 24 hours after the aspirin was taken. Following a 2-week washout period dosages were reversed and another baseline and 24-hours post-aspirin specimen was collected.

[5] = tested on: 11-dehydro TXB2; assay: Platelet urinary response ratio (PURR), aspirin therapy vs non-users, reformulated buffer; type: in vivo, human
Source text: The PURRs generated in the 11-dehydro thromboxane B2 assay in the present example were higher than those generated in subsequent studies. The average reduction after the investigators initial assay was 60%. This change was a result of a reformulation of the reagent buffer. Reformation of the buffer was made by the supplier, Cayman Chemical Corporation. The initial buffer was thought to be a phosphate saline buffer. The reformatted buffer is an alpha diethanolamine buffer. […] The buffer change was made to convert any lactone form present in the same urine to the free acid form of the thromboxane. The current procedure requires a two-hour pre-incubation of the urine sample in the diethanolamine buffer in order to allow for the conversion of the forms before pipetting to the plate. The new decision point for the assay is 400 PURR units, down from the original 1000.
To normalize for urinary output, results are expressed as platelet urinary response ratio (PURR) based upon pg 11-dehydro TXB2/g creatinine. Results of all populations were compared using the student t-test.

[6] = patients with prior acute myocardial infarction or stroke; cited from earlier work
[7] = smokers after partial ileal bypass surgery reporting even infrequent aspirin use; 45.2% with no aspirin use; cited from earlier work
[8] = cited from earlier work
[9] = tested on: platelet aggregation; details: cited from earlier work
[10] = tested on: platelet aggregation; details: intermittent claudication, 100 mg aspirin/day, at any given time; cited from earlier work
[11] = tested on: platelet reactivity; details: cited from earlier work
[12] = tested on: serum TXB2; details: 3 mg of aspirin per day, healthy volunteers; cited from earlier work
[13] = single dose of 325 mg; cited from earlier work
[14] = tested on: platelet suppression response; details: patients on aspirin therapy; cited from earlier work
[15] = in vivo; cited from earlier work; remark: listed apart in the source

## Vitamin E
[1]
  Mean post-intervention PURR: 1293.1 PURR
  % Change of PURR vs mean baseline: +14.3%
  effect upon urinary excretion of 11-dehydro thromboxane B2: no measurable effect

## CCCCCC(O)C=CC1OC(=O)CC(O)C1CC=CCCCC(=O)O (stereo not shown) [11-dehydro TXB2, 11-dehydro thromboxane B2]
[2]
  plasma half-life: 45 min

## CC(=O)Oc1ccccc1C(=O)O [Aspirin, acetyl salicylic acid]
[3]
  mean 11-de-H-TXB2 in random urine of aspirin users: 523 pg 11-de-H-TXB2/mg creatinine
[4]; 81 mg aspirin, urine 11-dehydro TXB2 24 hours post-dose vs baseline, individual subjects 3, 8, 12, 14, 17, 18, 24 with weak response
  % Inhibition (81): 60% and 78% and 46% and 48% and 70% and 17% and 10%
[4]; 81 mg/day
  mean reduction of 11-dehydro TXB2 / PURR: 68%
[4]; 325 mg aspirin, urine 11-dehydro TXB2 24 hours post-dose vs baseline, individual subjects 3, 8, 12, 14, 17, 18, 24 with weak response
  % Inhibition (325): 44% and 40% and 82% and 83% (2×) and 46% and 38%
[4]; 325 mg/day
  mean reduction of 11-dehydro TXB2 / PURR: 76%
[4]; crossover study, seven individuals
  individuals with a less than 50% response to either 81 mg or 325 mg of aspirin: 30%
[5]; 81 to 325 mg/day, N 98, aspirin non-users 1147
  Mean PURR, aspirin therapy: 297 PURR units
[5]; aspirin users, decision points 400 / 500 pg 11-dehydro-TXB2/mg creatinine
  individuals identified as potential non-responders: 13%
[1]
  Mean post-intervention PURR: 379.7 PURR
  % Change of PURR vs mean baseline: −65.6%
  effect upon urinary excretion of 11-dehydro thromboxane B2: large and statistically significant effect
[6]
  new thrombotic events prevented: up to 40 per thousand treated
[7]
  overall mortality rate: 10.4%
[8]; between 4 and 10 a.m., 325 mg every other day
  reduction of the morning peak of infarction: 59.3%
[8]; healthy men, 325 mg every other day, vs placebo
  mean reduction in the incidence of first myocardial infarction: 44.8%
[8]; healthy men
  thrombotic events prevented, average: four
[9]; atrial fibrillation, 325 mg enteric coated aspirin per day
  patients with only partial inhibition of platelet aggregation: seven of 17
[9]; previous ischemic stroke, escalation to 1300 mg/day
  patients with restoration of platelet aggregation (aspirin resistance): 8.2%
[10]
  males with complete inhibition of aggregation: 40%
[11]; 500 mg three times per day, upon initial administration
  subjects with immediate suppression of platelet reactivity: 90%
[11]; 24-month period following discharge
  secondary aspirin non-responders with myocardial infarct, repeat stroke, or vascular death: 40%
[11]; 114 remaining subjects, 24-month period
  remaining subjects with major endpoints: 4.4%
[12]
  reduction of serum TXB2 levels compared to placebo: 39%
[13]
  duration of effect on platelet laboratory assays: six to ten
[14]
  individuals with aspirin resistance / less than adequate platelet suppression response: up to 20%
[15]
  relative risk for hemorrhagic stroke: 4 ×
  relative risk of ischemic stroke: 1.6 ×
